Test results published in the supplement of paper PMC11962398.

How the values were obtained:
BI-2493 [1] = compound: T1, C[C@H]1CNCCN1c1nccc(-c2noc3c2CCC[C@@]32CCCc3sc(N)c(C#N)c32)n1 [BI-2493]; test: 1 - AUC of viability dose-response curve (sensitivity) (fraction); higher = more sensitive; details: 5 days
Method: (§1)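 PRISM pooled barcoded cancer cell line viability screen (Broad Institute) with BI-2493 at 8 doses in threefold dilutions from 0.00457 to 10 µmol/L, 5-day treatment; curves fitted per cell line. IC50 is undefined (placeholder) for resistant lines. AUC is capped at 1, and sensitivity is reported as 1 − AUC.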

BI-2493 [2] = compound: T1, BI-2493; details: 5 days
Method: as §1

Row | Test System | 1 - AUC of viability dose-response curve (BI-2493 [1]) | IC50 of cell viability (BI-2493 [2])
1 | TC106_BONE | 0.108 | 5.11 µM
2 | TC205_BONE | 0.082 | > 10 µM
3 | TCCPAN2_PANCREAS | 0.0795 | 8.86 µM
4 | TCCSUP_URINARY_TRACT | 0.0247 | 9.48 µM
5 | TE1_OESOPHAGUS | 0.0344 | 9.58 µM
6 | TE4_OESOPHAGUS | 0.0912 | 4.83 µM
7 | TE5_OESOPHAGUS | 0.0423 | 9.08 µM
8 | TE6_OESOPHAGUS | 0.0969 | 4.43 µM
9 | TE8_OESOPHAGUS | 0.0526 | > 10 µM
10 | TE9_OESOPHAGUS | 0.107 | 5.83 µM
11 | TE10_OESOPHAGUS | 0.146 | > 10 µM
12 | TE11_OESOPHAGUS | 0.102 | 4.31 µM
13 | TE14_OESOPHAGUS | 0.00721 | 9.66 µM
14 | TE15_OESOPHAGUS | 0.381 | 0.153 µM
15 | TE617T_SOFT_TISSUE | 0.193 | 3.75 µM
16 | TEN_ENDOMETRIUM | 0.00891 | 9.58 µM
17 | TF1_HAEMATOPOIETIC_AND_LYMPHOID_TISSUE | 0.427 | 0.352 µM
18 | TFK1_BILIARY_TRACT | 0.173 | 2.89 µM
19 | TGBC1TKB_BILIARY_TRACT | 0.0559 | 7.28 µM
20 | TGBC18TKB_LARGE_INTESTINE | 0.103 | 9.22 µM
21 | TGBC52TKB_BILIARY_TRACT | 0.255 | 1.47 µM
22 | TGW_AUTONOMIC_GANGLIA | 0.123 | 4.67 µM
23 | TM31_CENTRAL_NERVOUS_SYSTEM | 0.0846 | 8.57 µM
24 | TM87_SOFT_TISSUE | 0.26 | 5.06 µM

Row | Test System | 1 - AUC of viability dose-response curve (BI-2493 [1]) | IC50 of cell viability (BI-2493 [2])
25 | TOV21G_OVARY | 0.114 | 5.42 µM
26 | TT1TKB_LARGE_INTESTINE | 0.312 | 1.08 µM
27 | TT2609C02_THYROID | 0.00366 | > 10 µM
28 | TTC442_SOFT_TISSUE | 0.0621 | 5.84 µM
29 | TTC549_SOFT_TISSUE | 0.113 | 5.34 µM
30 | TTC642_SOFT_TISSUE | 0.0875 | 7.08 µM
31 | TTC709_SOFT_TISSUE | 0.16 | 4.96 µM
32 | TT_OESOPHAGUS | 0.191 | 5.9 µM
33 | TT_THYROID | 0.0835 | 6.45 µM
34 | TUHR4TKB_KIDNEY | 0.123 | 3.62 µM
35 | TYKNU_OVARY | 0.0105 | 9.48 µM
36 | U2OS_BONE | 0.215 | > 10 µM
37 | U87MG_CENTRAL_NERVOUS_SYSTEM | 0.111 | > 10 µM
38 | U118MG_CENTRAL_NERVOUS_SYSTEM | 0.0721 | 6.46 µM
39 | U178_CENTRAL_NERVOUS_SYSTEM | 0.139 | 7.8 µM
40 | U266B1_HAEMATOPOIETIC_AND_LYMPHOID_TISSUE | 0.0732 | 7.47 µM
41 | U343_CENTRAL_NERVOUS_SYSTEM | 0.0705 | 6.54 µM
42 | U937_HAEMATOPOIETIC_AND_LYMPHOID_TISSUE | 0.17 | 3.77 µM
43 | U2904_HAEMATOPOIETIC_AND_LYMPHOID_TISSUE | 0.0108 | 9.63 µM
44 | U2973_HAEMATOPOIETIC_AND_LYMPHOID_TISSUE | 0.33 | 0.921 µM
45 | UACC62_SKIN | 0.0436 | 9.21 µM
46 | UACC257_SKIN | 0.0407 | 7.78 µM
47 | UBLC1_URINARY_TRACT | 0.137 | 4.3 µM
48 | UMRC3_KIDNEY | 0.106 | 4.74 µM

Row | Test System | 1 - AUC of viability dose-response curve (BI-2493 [1]) | IC50 of cell viability (BI-2493 [2])
49 | UMRC7_KIDNEY | 0.0724 | 6.09 µM
50 | UMUC1_URINARY_TRACT | 0.226 | 2.29 µM
51 | UMUC5_URINARY_TRACT | 0.0622 | 7.6 µM
52 | UMUC7_URINARY_TRACT | 0.14 | > 10 µM
53 | UMUC10_URINARY_TRACT | 0.0119 | 9.49 µM
54 | UMUC11_URINARY_TRACT | 0.101 | 6.87 µM
55 | UO31_KIDNEY | 0.0602 | 9.54 µM
56 | UPCISCC072_UPPER_AERODIGESTIVE_TRACT | 0.0294 | 8.57 µM
57 | UPCISCC111_UPPER_AERODIGESTIVE_TRACT | 0.158 | 4.12 µM
58 | UPCISCC116_UPPER_AERODIGESTIVE_TRACT | 0.118 | 5.74 µM
59 | UW228_CENTRAL_NERVOUS_SYSTEM | 0.0946 | 4.79 µM
60 | VAESBJ_SOFT_TISSUE | 0.00971 | 9.61 µM
61 | VAL_HAEMATOPOIETIC_AND_LYMPHOID_TISSUE | 0.136 | 3.46 µM
62 | VMCUB1_URINARY_TRACT | 0.15 | 3.76 µM
63 | VMRCRCW_KIDNEY | 0.0854 | 5.59 µM
64 | VMRCRCZ_KIDNEY | 0.0774 | 6.92 µM
65 | WAOSEL_HAEMATOPOIETIC_AND_LYMPHOID_TISSUE | 0.00836 | 9.74 µM
66 | WERIRB1_AUTONOMIC_GANGLIA | 0.052 | 9.33 µM
67 | WM88_SKIN | 0.0214 | 8.79 µM
68 | WM793_SKIN | 0.0739 | 5.47 µM
69 | WM983B_SKIN | 0.038 | 7.98 µM
70 | WM2664_SKIN | 0.0151 | 9.22 µM
71 | WSUDLCL2_HAEMATOPOIETIC_AND_LYMPHOID_TISSUE | 0.156 | 4.99 µM
72 | YAPC_PANCREAS | 0.287 | 2.97 µM
